According to patent publication EP1914304A1 (priority 1998, dated 1999):
“And” between values parts separate entries of the source, which are not always exact repeats. Equal values may be shown once.

Legend:
[1] = molecular target: HSV-1 thymidine kinase mutant TKI 208 (Leu-170 to Val), SEQ ID 23 (codons 165-175) (Human herpesvirus 1, UniProt P06478, L170V); format: biochemical, Herpes Simplex Virus Type 1; conditions: Table I; purified enzyme, 34°C, 10 minutes
Experimental: (§1) Purification of wild-type and mutant TKs was performed by affinity chromatography on CH-Sepharose 4B (Pharmacia) coupled to p-aminophenylthymidine 3'-phosphate. Briefly, crude bacterial extract was passed three times through a 7-mL bed-volume affinity column. The column was then washed sequentially using 30 mL each of buffer A [0.1 M Tris HCl, pH 7.5/5 mM dithiothreitol (DTT)/10% glycerol], buffer B (0.1M Tris-HCl, pH 7.5/0.5 M KCl/5 mM DTT/10% glycerol), and buffer A. TK was eluted using a 60-mL linear gradient of 0-600 µM dT in buffer C (0.3 M Tris HCl, pH 7.4/50 mM KCl/10% glycerol). Active fractions were pooled and dialyzed against three changes each of 2 liters of 50 mM Tris-HCl, pH 7.4/5 mM DTT/10% glycerol. Except in the final dialysis, all the above buffers contained 50 µg/mL of aprotinin and 2 µg/mL each of pepstatin and leupeptin.
(§2) Secondly, the kinetics of AZT phosphorylation by the two mutants was determined. […] (One unit of enzyme is defined as that amount that can phosphorylate 1.0 pmol of dT to TMP in 1 minute under the conditions described above.) Incubation was at 34°C ± 1°C for 10 minutes, and reactions were stopped by adding 1.0 mM unlabeled dT and cooling on ice. Half of the reaction mixtures were pipetted onto a DEAE-cellulose disc (25 mm), dipped in distilled water (1 minute), followed by four washes in absolute ethanol. The amount of radioactivity adsorbed to the disc was determined by scintillation spectroscopy. […] All other components in the reaction mixtures and the incubation conditions were as described above for phosphorylation of AZT.
(§3) All buffers used in the purification of TK contained 5mM DTT, 50 µ/mL aprotinin, 2 µg/mL each of leupeptin and pepstatin and I mM PMSF unless otherwise indicated. […] TK assay was performed on all the fractions and peak TK - fractions were pooled and dialyzed against three changes of 21 of dialysis buffer (50 mM Tris-HCl, pH 7.4, 5 mM DTT, 10% glycerol). In the final dialysis, protease inhibitors were omitted from the buffer and the dialyzed fractions were aliquoted and stored at -70°C. The column was washed thoroughly twice by using the same washing and elution protocols as described above prior to application of each extract preparation.
(§4) Kinetic parameters were determined essentially as described below. […] Incubation was at 34 ± 1°C for 10 minutes. […] Half of the reaction mix was pipetted onto a DEAE-cellulose disc (25 mm) and the disc was dipped in distilled water (1 minute) followed by four washes each in 10 mL of absolute ethanol. The adsorbed products on the disc were counted in a scintillation counter.

[2] = molecular target: HSV-1 thymidine kinase, wild-type (pMCC), SEQ ID 13 (codons 165-175) (Human herpesvirus 1, UniProt P06478); format: biochemical, Herpes Simplex Virus Type 1; conditions: Table I; purified enzyme, 34°C, 10 minutes
Sequence of HSV-1 thymidine kinase, wild-type (pMCC), SEQ ID 13 (codons 165-175) (P06478 whole entry, looked up): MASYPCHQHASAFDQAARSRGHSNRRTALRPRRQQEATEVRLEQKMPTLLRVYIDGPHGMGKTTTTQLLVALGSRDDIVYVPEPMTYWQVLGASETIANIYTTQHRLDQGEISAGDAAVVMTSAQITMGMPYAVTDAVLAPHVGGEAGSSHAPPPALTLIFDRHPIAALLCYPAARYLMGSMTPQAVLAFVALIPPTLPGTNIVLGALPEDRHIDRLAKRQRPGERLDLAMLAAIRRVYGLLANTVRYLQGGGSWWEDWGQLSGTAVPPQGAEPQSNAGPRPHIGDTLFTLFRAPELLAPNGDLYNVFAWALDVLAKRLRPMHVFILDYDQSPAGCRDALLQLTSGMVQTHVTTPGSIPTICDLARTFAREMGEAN
Experimental: as §1, §2, §3, §4

[3] = molecular target: T1, HSV-1 thymidine kinase mutant 75 (LIF-ALL library, codons 159-161 and 168-170 randomized; pET23d:75) (Human herpesvirus 1, UniProt P0DTH5); conditions: Table V
T1 sequence (P0DTH5 1-376): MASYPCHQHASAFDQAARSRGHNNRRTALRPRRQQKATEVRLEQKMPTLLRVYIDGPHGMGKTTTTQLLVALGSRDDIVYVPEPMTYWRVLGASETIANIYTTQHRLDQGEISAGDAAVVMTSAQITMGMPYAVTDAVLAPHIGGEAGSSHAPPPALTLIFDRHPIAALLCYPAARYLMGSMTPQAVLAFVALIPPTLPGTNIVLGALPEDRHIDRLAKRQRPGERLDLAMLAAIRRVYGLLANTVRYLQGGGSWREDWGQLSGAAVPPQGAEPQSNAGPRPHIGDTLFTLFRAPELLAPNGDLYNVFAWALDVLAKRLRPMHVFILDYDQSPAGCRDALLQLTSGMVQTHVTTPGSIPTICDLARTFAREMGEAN
Experimental: The culture is incubated at 37°C overnight. The following day the 5ml culture is used to inoculate 1L M9ZB + cabenicillin at 20µg/ml and the culture allowed to grow at 37°C to OD600 0.1. At that point IPTG is added to 0.4mM and the culture incubated a further 3 hours. The cells are chilled on ice, pelleted by centrifugation and the pellets washed once in cell wash buffer (50mM Tris, pH 7.5, 5mM EDTA, 10% sucrose) prior to freezing the pellets at -70°C. The next day the cells are resuspended in 12ml Buffer 1 (50mM Tris, pH 7.5, 10% sucrose, 2mM DTT, 5mM EDTA, 1mM PMSF) and the volume split into two 13ml Oakridge ultracentrifuge tubes. 1ml Buffer 1 containing 3mg lysozyme is added to each tube and the tubes left on ice for 1 hr. […] The cleared supernatant is then aliquoted and frozen at -70°C.
The 1ml bed volume column is prepared by passing 10ml Buffer 1 followed by 10ml Absorption Buffer (50mM Tris, pH 7.5, 10% sucrose, 2mM DTT, 25mM MgAc2, 10mM ATP) over the column. Two ml of the cleared lysate is mixed with 2 ml of Absorption Buffer and passed through a 0.2µm filter. This mix is passed over the column 3 times. The column is washed with 5ml Absorption buffer three times and the 5ml fractions collected. […] The column is reactivated by loading on 10ml High Salt Buffer (50mM Tris, pH 7.5, 10% sucrose, 2mM DTT, 0.5M KCl) and 10ml 50mM Tris, pH 7.5. The column is stored in 50mM Tris pH 7.5 + 0.004% sodium azide. The extent of purification is monitored by Coomassie stained SDS:PAGE analysis and the concentration of purified protein determined using the BioRad Reagent (Bradford Reagent).
Km and Vmax values are determined from double reciprocal plots and kcat values are calculated using the equation Vmax = kcat [Eo] where [Eo] is the total enzyme concentration. The BioRad reagent was used to determine the total enzyme concentration of purified thymidine kinase enzymes.

[4] = test system: ts13 BHK tk- cells transfected with pCMV:75 (HSV-1 TK mutant 75); assay: Cell killing by GCV and ACV, Alamar Blue viability (ED50); format: cell-based, baby hamster; conditions: Mesocricetus auratus, 96 h; effective dose for 50% cell killing, after 4 days on nucleoside analog, pooled G418 resistant clones
Experimental: (§5) Briefly, the cell transfections are performed as follows. Approximately 5 x 10^5 ts13 BHK tk cells (ATCC CRL-1632) are plated on 100mm dishes in DMEM + 10% calf serum. For each transfection 1 µg of pSV2neo and 10µg of a pCMV construct (pCMV, pCMV:TK-wrong (HSVTK in the wrong orientation relative to the promoter), pCMV:HSVTK, pCMV:30, pCMV:75 or pCMV:132 DNA) in 0.25M CaCl2 are mixed with 0.5ml 2 x BBS (see Chen and Okayama) and preincubated at 37°C at 2.5% CO2 for […]. The CaCl2/DNA mix is added dropwise to the plates and mixed in well. After a 24 hour incubation at 37°C in a 2.5% CO2 wet incubator, the cells are rinsed twice with Dulbecco PBS minus Ca/Mg and fed with fresh DMEM + 10% calf serum. Plates are incubated at 37°C with 6% CO2. After 72 hours post-transfection the cells are split 1:3 and plated in DMEM + 10% calf serum containing G418 at 600µg/ml.
(§6) The cells are selected on G418 (600µg/ml) at 37°C for 17 days. […]. Approximately 30-40 clones are selected in this manner for each transfected DNA containing a tk gene in the correct orientation. The pCMV and pCMV:TK-wrong transfections yielded between 130 and 140 clones each. G418 resistant clones are harvested, pooled and plated at a density of 2000 cells/well in 100µl DMEM + 10% calf serum and 200µg/ml G418 + 6% CO2 in 96 well microtiter plates. […]. After three days in the presence of the nucleoside analog, Alamar Blue is added and 6 hours later the plates are scanned using a fluorometer as according to the manufacturer's protocol (Alamar Biosciences, Inc., Sacramento, CA). The plates are incubated a further 24 hours at 37°C and scanned again.
(§7) Determination of the fluorescence level of cells incubated in the presence of Alamar Blue directly relates to cell viability.

[5] = test system: ts13 BHK tk- cells transfected with pCMV:30 (HSV-1 TK mutant 30); assay: as above; format: cell-based, baby hamster; conditions: Mesocricetus auratus, 96 h; effective dose for 50% cell killing, after 4 days on nucleoside analog, pooled G418 resistant clones
Experimental: as §5, §6, §7

[6] = test system: ts13 BHK tk- cells transfected with pCMV:132 (HSV-1 TK mutant 132); assay: as above; format: cell-based, baby hamster; conditions: Mesocricetus auratus, 96 h; effective dose for 50% cell killing, after 4 days on nucleoside analog, pooled G418 resistant clones
Experimental: as §5, §6, §7

[7] = test system: ts13 BHK tk- cells transfected with pCMV:HSVTK (wild-type HSV-1 TK); assay: as above; format: cell-based, baby hamster; conditions: Mesocricetus auratus, 96 h; effective dose for 50% cell killing, after 4 days on nucleoside analog, pooled G418 resistant clones
Experimental: as §5, §6, §7

Sequence of HSV-1 thymidine kinase mutant TKI 208 (Leu-170 to Val), SEQ ID 23 (codons 165-175) (P06478 whole entry L170V, looked up): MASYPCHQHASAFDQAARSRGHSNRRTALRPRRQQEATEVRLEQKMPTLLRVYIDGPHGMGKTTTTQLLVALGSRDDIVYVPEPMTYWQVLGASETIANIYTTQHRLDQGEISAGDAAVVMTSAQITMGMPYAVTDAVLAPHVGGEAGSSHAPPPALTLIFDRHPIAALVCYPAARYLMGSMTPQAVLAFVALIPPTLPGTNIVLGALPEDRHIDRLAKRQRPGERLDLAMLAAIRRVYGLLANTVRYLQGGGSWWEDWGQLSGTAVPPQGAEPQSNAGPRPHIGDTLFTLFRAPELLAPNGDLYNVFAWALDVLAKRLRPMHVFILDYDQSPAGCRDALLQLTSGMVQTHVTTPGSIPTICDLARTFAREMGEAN

Structure (SMILES)	Km [1]	kcat [1]	Km [2]	kcat [2]	Km ([3]; double reciprocal plots)	kcat ([3]; per active site)	IC50 [4]	IC50 [5]	IC50 [6]	IC50 [7]
Cc1cn([C@H]2C[C@H](N=[N+]=[N-])[C@@H](CO)O2)c(=O)[nH]c1=O [AZT, 3' azido-3' thymidine]	4.4 µM	0.03 s⁻¹	8.5 µM and 8.46 µM	0.036 s⁻¹	–	–	–	–	–	–
Nc1nc2c(ncn2COCCO)c(=O)[nH]1 [acyclovir]	–	–	–	–	23 µM	.010 s⁻¹	1.25 µM	18 µM	25 µM	25 µM
